{"source": "patent US10259815B2", "about": "“Gabaergic ligands and their uses” (UWM Research Foundation, Inc., priority 2015, dated 2019)", "system": "Male NIH Swiss mice", "experiment": "Marble burying assay (anxiolytic)", "format": "in vivo", "method": "Male NIH Swiss mice (n=10) were dosed i.p. with vehicle (1% carboxymethyl cellulose) or one of the test compounds (10 or 30 mg/kg) 30 minutes prior to being tested in the marble burying assay.\nThe marble burying assay is designed to measure the anxiolytic-effect of a compound. When mice are nervous, they will bury marbles. As there becomes a decrease in amount of marbles buried, the better anxiolytic effect of a compound.\nThe marble burying assay is used to determine the anxiolytic activity of a given compound. Mice are placed in a tub containing 20 marbles placed over a bed of sawdust. Defensive burying (Broekkamp 1986) is the natural reaction for the mice. When given an anxiolytic, such as diazepam, the mice are less likely to defensively bury the marbles.\nExperiments were carried out by the methods described in Li et al. (Life Sciences 2006, 78, 1933-1939). Separate groups of mice were used in these experiments and were conducted in a dimly lit testing room. After 60 min acclimation to the experimental room, mice were placed in a 17×28×12 cm high plastic tub with […] sawdust shavings (Harlan Sani-Chips, Harlan-Teklad, Indianapolis, Ind., USA) on the floor, which was covered with 20 blue marbles (1.5 cm diameter) placed in the center. […] The number of marbles buried (⅔ covered with sawdust) was counted and submitted to inter-observer reliability assessment.", "note": "“Also recorded” adds a separate entry of the source."}
{"smiles": "C#Cc1ccc2c(c1)C(c1ccccn1)=NCc1c(-c3cnco3)ncn1-2", "note": "[KRM-II-81, 5-(8-Ethynyl-6-(pyridin-2-yl)-4H-benzo[f]imidazo[1,5-a][1,4]diazepin-3-yl)oxazole]", "values": [{"measurement": "sedation observed in marble burying assay", "setting": "10 and 30 mg/kg i.p.", "value": "without observed signs of sedation"}, {"measurement": "anxiolytic activity in marble burying assay", "setting": "mouse, in vivo", "value": "better anxiolytic than HZ-166; also recorded: good activity in the marble burying"}]}
